Assay results reported in PMC5847527, “Identification of a novel 2-oxindole fluorinated derivative as in vivo antitumor agent for prostate cancer acting via AMPK activation” (Scientific Reports, 2018).

Tested on: PC-3 and LNCaP cells
Assay: MTT cell viability in PC-3 and LNCaP cells under AMPK inhibition or knocking down
Assay type: cell-based, human
Conditions: α1AMPK-selective siRNA
Procedure: Figure 5 AMPK activation by compound 8c in prostate cancer cells. (A) PC-3 and LNCaP cells were treated with vehicle, 25 µM compound 8c, 25 µM compound 8c + 5 μM Dorsomorphin (8c + D) or 5 μM Dorsomorphin (D), for 1 hour or 24 hours and levels of the phosphorylated AMPK (pAMPK), phosphorylated ACC (pACC), phosphorylated Raptor (pRaptor) forms and HIF1α were determined by Western blot. Upper panel, representative Western blot of three different experiments. β-tubulin (β-Tub) serves as a loading control. Lower panel, densitometric analyses of bands represented as the mean of the ratio pAMPK/AMPK or pACC/ACC. (B) Cell viability monitored by MTT assay in PC-3 and LNCaP cells treated with vehicle, 25 µM and 50 μM compound 8c alone or in the presence of 5 μM Dorsomorphin or transfected with control siRNA (siC) or α1AMPK-selective siRNA (siAMPK). (C) LNCaP cells were treated with vehicle, 25 µM compound 8c, 25 µM compound 8c + 5 μM Dorsomorphin (8c + D) or 5 μM Dorsomorphin (D), for 24 hours and levels of Androgen Receptor (AR), Prostate specific antigen (PSA) and Prostate specific membrane antigen (PSMA) were determined by Western blot.Values were normalized with the control and represent the mean ± SD of at least three independent experiments. *p < 0.05 and **p < 0.01 compared to control and ^#p < 0.05 and ^##p < 0.01 compared with 8c-treated group by the Student’s t-test. […]

SMILES: O=C1Nc2ccccc2C1(F)Cc1ccc(-c2ccccc2)o1 (stereo not shown) [Compound 8c, 3-fluoro-3-((5-phenylfuran-2-yl)methyl)indolin-2-one]
- cell death with AMPK silencing by specific siRNA: prevented 8c-induced cell death
